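Five concentrations, 48 hours, 96-well plates. The concentration for 50% growth inhibition is given as GI50. At the TGI there is no net growth.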
Key:
Test in all cases: inhibition of tumour cell growth, NCI panel, 48 h
PC-3 prostate = test system: PC-3 prostate
SNB-19 CNS = test system: SNB-19 CNS
CCRF-CEM leukemia = test system: CCRF-CEM leukemia
MOLT-4 leukemia = test system: MOLT-4 leukemia
SR leukemia = test system: SR leukemia
HL-60(TB) leukemia = test system: HL-60(TB) leukemia
IGROV1 ovarian = test system: IGROV1 ovarian
SNB-75 CNS = test system: SNB-75 CNS
SN12C renal = test system: SN12C renal
OVCAR-8 ovarian = test system: OVCAR-8 ovarian
HOP-92 NSCLC = test system: HOP-92 NSCLC
K-562 leukemia = test system: K-562 leukemia
OVCAR-5 ovarian = test system: OVCAR-5 ovarian
NCI/ADR-RES ovarian = test system: NCI/ADR-RES ovarian
SK-OV-3 ovarian = test system: SK-OV-3 ovarian
KM12 colon = test system: KM12 colon
EKVX NSCLC = test system: EKVX NSCLC
MDA-MB-231 breast = test system: MDA-MB-231 breast

Which results are given for `CC(C)c1ccc(C(=O)Nc2sc3c(CN(C)C)c(O)ccc3c2C(N)=O)cc1`?
GI50 (PC-3 prostate): 2.55 µM; TGI (PC-3 prostate): > 100 µM; GI50 (SNB-19 CNS): 3.23 µM; TGI (SNB-19 CNS): > 100 µM; GI50 (CCRF-CEM leukemia): 2.2 µM; TGI (CCRF-CEM leukemia): 9.37 µM; GI50 (MOLT-4 leukemia): 2.32 µM; TGI (MOLT-4 leukemia): 8.51 µM; GI50 (SR leukemia): 2.89 µM; TGI (SR leukemia): 8.79 µM; GI50 (HL-60(TB) leukemia): 1.74 µM; TGI (HL-60(TB) leukemia): 4.38 µM; GI50 (IGROV1 ovarian): 2.02 µM; TGI (IGROV1 ovarian): > 100 µM; GI50 (SNB-75 CNS): 2.09 µM; TGI (SNB-75 CNS): > 100 µM; GI50 (SN12C renal): 2.2 µM; TGI (SN12C renal): > 100 µM; GI50 (OVCAR-8 ovarian): 3.07 µM; TGI (OVCAR-8 ovarian): > 100 µM; GI50 (HOP-92 NSCLC): 3.48 µM; TGI (HOP-92 NSCLC): > 100 µM; GI50 (K-562 leukemia): 0.409 µM; TGI (K-562 leukemia): 4.55 µM; GI50 (OVCAR-5 ovarian): 2.66 µM; TGI (OVCAR-5 ovarian): > 100 µM; GI50 (NCI/ADR-RES ovarian): 2.64 µM; TGI (NCI/ADR-RES ovarian): > 100 µM; GI50 (SK-OV-3 ovarian): 6.72 µM; TGI (SK-OV-3 ovarian): > 100 µM; GI50 (KM12 colon): 0.728 µM; TGI (KM12 colon): > 100 µM; GI50 (EKVX NSCLC): 6.28 µM; TGI (EKVX NSCLC): > 100 µM; GI50 (MDA-MB-231 breast): 3.27 µM; TGI (MDA-MB-231 breast): > 100 µM
